One data set concerns the target human AChE (Homo sapiens, UniProt P22303). It counts as biochemical.
A further data set has as its target CBDP-phosphonylated BChE (Homo sapiens, UniProt P06276). It counts as biochemical. The conditions noted are these: pH 8.
A further data set concerns the target CBDP-phosphonylated AChE (Homo sapiens, UniProt P22303). The data set is classed as biochemical. The following applies: pH 8.
Data set [1] deals with T1, human BChE (Homo sapiens, UniProt P06276).
The conditions of data set [2]: pH 8.
In another data set the test system is rat brain AChE. The following applies: pH 7.4; cited from earlier work.
For a further data set, the system named is recombinant human AChE. The conditions noted are these: pH 8; cited from earlier work.
The target of data set [3] is T1, human BChE. The following applies: pH 8; cited from earlier work.
In the next data set the test system is paraoxonase 1. The following applies: cited from earlier work.
The next data set concerns the target BChE. The following applies: cited from earlier work.

Bounds are passed on as bounds.

A word on the Ki: it is a measure of affinity in units of concentration, obtained from inhibition or displacement.

Chain of human AChE (P22303 32-614): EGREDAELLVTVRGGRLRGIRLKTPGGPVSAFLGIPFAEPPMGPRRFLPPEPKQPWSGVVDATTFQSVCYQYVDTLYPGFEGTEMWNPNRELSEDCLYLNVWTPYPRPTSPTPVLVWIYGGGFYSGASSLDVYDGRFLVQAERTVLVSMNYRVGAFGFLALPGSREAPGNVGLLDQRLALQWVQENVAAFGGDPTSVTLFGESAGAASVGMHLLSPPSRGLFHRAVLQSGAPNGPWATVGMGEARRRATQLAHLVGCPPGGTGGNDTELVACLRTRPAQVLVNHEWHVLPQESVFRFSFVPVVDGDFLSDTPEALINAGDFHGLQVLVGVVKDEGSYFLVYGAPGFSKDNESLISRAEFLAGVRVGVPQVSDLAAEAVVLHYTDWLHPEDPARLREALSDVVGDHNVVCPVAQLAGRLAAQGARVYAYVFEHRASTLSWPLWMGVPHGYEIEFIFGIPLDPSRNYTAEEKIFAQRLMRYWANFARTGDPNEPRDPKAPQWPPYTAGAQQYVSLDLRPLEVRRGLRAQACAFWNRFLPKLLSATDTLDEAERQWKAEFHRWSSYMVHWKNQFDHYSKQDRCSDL
T1 sequence (P06276 29-602): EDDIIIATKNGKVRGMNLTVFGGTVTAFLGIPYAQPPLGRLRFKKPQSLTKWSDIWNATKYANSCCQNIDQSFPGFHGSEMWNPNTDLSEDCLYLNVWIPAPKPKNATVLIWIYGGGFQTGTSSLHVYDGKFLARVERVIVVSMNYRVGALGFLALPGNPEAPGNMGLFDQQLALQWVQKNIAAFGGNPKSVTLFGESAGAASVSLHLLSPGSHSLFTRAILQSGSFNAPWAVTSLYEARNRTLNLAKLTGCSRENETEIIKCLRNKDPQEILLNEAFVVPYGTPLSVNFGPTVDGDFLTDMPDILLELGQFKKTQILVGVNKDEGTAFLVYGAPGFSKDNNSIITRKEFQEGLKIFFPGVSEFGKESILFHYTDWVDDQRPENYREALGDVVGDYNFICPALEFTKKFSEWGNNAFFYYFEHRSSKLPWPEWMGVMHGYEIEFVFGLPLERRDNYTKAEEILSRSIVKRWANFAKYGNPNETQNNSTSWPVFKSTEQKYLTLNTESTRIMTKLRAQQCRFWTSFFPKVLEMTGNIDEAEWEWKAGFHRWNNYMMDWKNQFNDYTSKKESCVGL
Chain of CBDP-phosphonylated AChE (P22303 32-614): as the sequence (P22303 32-614) above
Chain of CBDP-phosphonylated BChE (P06276 29-602): as the sequence (P06276 29-602) above

In the case of `Cc1ccccc1OP1(=O)OCc2ccccc2O1` (centres unmarked) [CBDP, 2-(o-cresyl)-4H-1,3,2-benzodioxaphosphoran-2-one], on human AChE, the “K'I, dissociation constant of the Michaelis complex, AChE form E′” value was greater than 5.5 µM. The “kobs, fast phase of inhibition (independent of CBDP concentration)” value at human AChE is 0.37 ± 0.15 min⁻¹. The inhibition constant Ki is less than 0.1 µM at human AChE (read-out: KI, dissociation constant of the Michaelis complex, AChE form E) and greater than 0.01 µM at human BChE [1] (read-out: KI, dissociation constant of the Michaelis complex, BChE form E). Also, the “time to loss of reactivatibility (aging) following inhibition” value at CBDP-phosphonylated BChE and at CBDP-phosphonylated AChE was “less than 15 s” each time. Also, the “K'I, dissociation constant of the Michaelis complex, BChE form E′” value at human BChE [1] was greater than 10 nM. Further, the “ki values for BChE (both forms)” value at human BChE [1] is listed as 10^7–10^8 M^−1 min^−1. Besides, the “slow phase reactivity of hBChE (form E′) relative to hAChE (form E′)” value at human BChE [1] worked out at 235±110 fold. Moreover, at human BChE [1] (human), the “kp, phosphorylation rate constant, BChE form E (kp=ki.KI)” value was greater than 1.5 min⁻¹. This compound showed a hydrolysis rate in data set [2] of 0.0126 min⁻¹. Also, the “bimolecular rate constant of inhibition” value was 18.3 M⁻¹ s⁻¹ with rat brain AChE, 35 M⁻¹ s⁻¹ with recombinant human AChE and 330 M⁻¹ s⁻¹ at human BChE [3]. The “reaction with paraoxonase 1” value in the data set on paraoxonase 1 is “does not react”.

chlorpyrifos-oxon: the “ki, reactivity with BChE” value on BChE was 2.83e+07 M⁻¹ s⁻¹.

`CCOP(=O)(OCC)Oc1cc(C)nc(C(C)C)n1` [diazoxon]: the “ki, reactivity with BChE” value on BChE is 1.28e+06 M⁻¹ s⁻¹.

The record behind these values is PMC3118852 (Chemical research in toxicology, 2011).
